Test results reported in EP0500785B1, “A HUMAN T CELL REACTIVE FELINE PROTEIN (TRFP) ISOLATED FROM HOUSE DUST AND USES THEREFOR” (IMMULOGIC PHARMACEUTICAL CORPORATION, priority 1989, dated 2002).

Tested on: TRFP primed T cell cultures
Test: T cell proliferation assay (tritiated thymidine incorporation) of TRFP-primed T cells restimulated with allergens or peptides
Format: cell-based, human
Description: Peripheral blood mononuclear cells (PBMC) were purified from 60 ml of heparinized blood from cat allergic patients. PBMC were subsequently treated as described below, although in individual cases, the length of time of cultivation with IL-2 and/or IL-4 and the specific peptides used for stimulation varied.
10 ml of PBMC from patient 131 at 10^6/ml were cultured at 37°C for 7 days in the presence of 5 micrograms purified TRFP/ml RPMI-1640 supplemented with 5% pooled human AB serum. Viable cells were purified by Ficoll-Hypaque centrifugation and cultured for three weeks at 5 units recombinant human IL-2/ml and 5 units recombinant human IL-4/ml. The resting T cells were then restimulated (secondary) with 5 micrograms TRFP at 2 x 10^5/ml in the presence of irradiated (3500 Rads) autologous PBMC at a concentration of 5 x 10^5/ml for three days, purified by Ficoll-Hypaque centrifugation and grown in 5 units IL-2 and 5 units IL-4/ml for two weeks. For assay, 2 x 10^4 resting secondary T cells were restimulated (tertiary) in the presence of 5 x 10^4 irradiated (3500 Rads) autologous PBMC or 2 x 10^4 transformed B cells (20,000 Rads) with various concentrations of allergens or their fragments in a volume of 200 microliters in a 96-well round bottom assay plates for 3 days. Each well then received 1 microCurie tritiated (methyl) thymidine for 16 hours. The counts incorporated were collected onto glass fiber filters and processed for liquid scintillation counting.
Antigens used: T cell reactive feline protein (TRFP), Hollister-Stier cat epithelium skin test reagent (CST), IPC ragweed pollen extract (pollen), and synthetic peptides derived from the TRFP protein sequence (See Figures 6 and 7). Significant T cell proliferation is generally regarded as greater than 2.5 times the media control (T cells and antigen presenting cells alone).
Alternatively, PBMC were treated as follows: the primary stimulated cells were cultured in IL-2/IL-4 for two weeks. The resting T cells derived from this culture were tested in a secondary assay with some, but not all, of the above allergens. […] This type of epitope analysis has allowed the definition of T cell epitopes present in TRFP.

[1] = Chain #1 TRFP peptides, average cpm with antigen divided by cpm of T cells and antigen presenting cells alone, responding patients, SI ≥ 2.5 positive
[2] = Chain #1 TRFP peptides, cat allergic patients, average SI of all responding patients multiplied by percent of patients with a positive response
[3] = Chain #2 TRFP peptides, cat allergic patients, average SI of responding patients multiplied by percent positive
[4] = Chain #2 TRFP peptides, cat allergic patients, average of responding patients

Substance | SI [1] | PI [2] | PI [3] | SI [4]
Fel 1-2: TRFP chain 1 peptide, amino acids 1 - 17 (EICPAVKRDVDLFLTGT; UniProt P30438 23-39, looked up, fragment) | 7.4 | 311 | – | –
Fel 3-1: TRFP chain 1 peptide, amino acids 18 - 33 (PDEYVEQVAQYKALPV; UniProt P30438 40-55, looked up, fragment) | 9.4 | 638 | – | –
Fel 3-11: TRFP chain 1 peptide, amino acids 18 - 30 (PDEYVEQVAQYKA; UniProt P30438 40-52, looked up, fragment) | 10.4 | 863 | – | –
Fel 3-13: TRFP chain 1 peptide, amino acids 18 - 28 (PDEYVEQVAQY; UniProt P30438 40-50, looked up, fragment) | 11.5 | 690 | – | –
Fel 3-15: TRFP chain 1 peptide, amino acids 18 - 29 (PDEYVEQVAQYK; UniProt P30438 40-51, looked up, fragment) | 10.4 | 1040 | – | –
Fel 8-1: TRFP chain 1 peptide, amino acids 5 - 33 (AVKRDVDLFLTGTPDEYVEQVAQYKALPV; UniProt P30438 27-55, looked up, fragment) | 15.1 | 1374 | – | –
Fel 8-2: TRFP chain 1 peptide, amino acids 6 - 33 (VKRDVDLFLTGTPDEYVEQVAQYKALPV; UniProt P30438 28-55, looked up, fragment) | 15.2 | 1353 | – | –
Fel 14-1: TRFP chain 1 peptide, amino acids 23 - 36 (EQVAQYKALPVVLE; UniProt P30438 45-58, looked up, fragment) | 9.9 | 871 | – | –
Fel 14-2: TRFP chain 1 peptide, amino acids 29 - 42 (KALPVVLENARILK; UniProt P30438 51-64, looked up, fragment) | 5.6 | 336 | – | –
Fel 14-4: TRFP chain 1 peptide, amino acids 26 - 36 (AQYKALPVVLE; UniProt P30438 48-58, looked up, fragment) | 6.0 | 474 | – | –
Fel 14-5: TRFP chain 1 peptide, amino acids 27 - 36 (QYKALPVVLE; UniProt P30438 49-58, looked up, fragment) | 5.4 | 286 | – | –
Fel 15: TRFP chain 1 peptide, amino acids 44 - 60 (CVDAKMTEEDKENALSV; UniProt P30438 66-82, looked up, fragment) | 11.0 | 440 | – | –
Fel 23: TRFP chain 1 peptide, amino acids 51 - 66 (EEDKENALSVLDKIYT; UniProt P30438 73-88, looked up, fragment) | 6.6 | 343 | – | –
Fel 30-2: TRFP chain 1 peptide, amino acids 25 - 48 (VAQYKALPVVLENARILKNCVDAK; UniProt P30438 47-70, looked up, fragment) | 4.2 | 248 | – | –
Fel 30-3: TRFP chain 1 peptide, amino acids 25 - 47 (VAQYKALPVVLENARILKNCVDA; UniProt P30438 47-69, looked up, fragment) | 4.8 | 230 | – | –
Fel 30-4: TRFP chain 1 peptide, amino acids 29 - 55 (KALPVVLENARILKNCVDAKMTEEDKE; UniProt P30438 51-77, looked up, fragment) | 11.6 | 1079 | – | –
Fel 30-5: TRFP chain 1 peptide, amino acids 29 - 54 (KALPVVLENARILKNCVDAKMTEEDK; UniProt P30438 51-76, looked up, fragment) | 11.0 | 792 | – | –
Fel 30-7: TRFP chain 1 peptide, amino acids 26 - 55 (AQYKALPVVLENARILKNCVDAKMTEEDKE; UniProt P30438 48-77, looked up, fragment) | 5.3 | 339 | – | –
Fel 30-8: TRFP chain 1 peptide, amino acids 28 - 55 (YKALPVVLENARILKNCVDAKMTEEDKE; UniProt P30438 50-77, looked up, fragment) | 4.1 | 262 | – | –
Fel 31-1: TRFP chain 2 peptide, amino acids 14 - 40 (FFAVANGNELLLDLSLTKVNATEPERT; UniProt P30440 31-57, looked up, fragment) | – | – | 733 | 9.4
Fel 31-2: TRFP chain 2 peptide, amino acids 14 - 39 (FFAVANGNELLLDLSLTKVNATEPER; UniProt P30440 31-56, looked up, fragment) | – | – | 599 | 8.1
Fel 31-4: TRFP chain 2 peptide, amino acids 14 - 37 (FFAVANGNELLLDLSLTKVNATEP; UniProt P30440 31-54, looked up, fragment) | – | – | 622 | 8.4
Fel 31-5: TRFP chain 2 peptide, amino acids 14 - 36 (FFAVANGNELLLDLSLTKVNATE; UniProt P30440 31-53, looked up, fragment) | – | – | 539 | 7.6
Fel 31-6: TRFP chain 2 peptide, amino acids 15 - 40 (FAVANGNELLLDLSLTKVNATEPERT; UniProt P30440 32-57, looked up, fragment) | – | – | 295 | 4.4
Fel 31-7: TRFP chain 2 peptide, amino acids 15 - 36 (FAVANGNELLLDLSLTKVNATE; UniProt P30440 32-53, looked up, fragment) | – | – | 267 | 5.8
Fel 32-1: TRFP chain 2 peptide, amino acids 12 - 24 (DVFFAVANGNELL; UniProt P30440 29-41, looked up, fragment) | – | – | 442 | 6.6
Fel 32-2: TRFP chain 2 peptide, amino acids 14 - 24 (FFAVANGNELL; UniProt P30440 31-41, looked up, fragment) | – | – | 424 | 5.3
